Results as given in paper PMC3953502 (ACS chemical biology, 2013).

Tests used:
ML-IAP = target: T1, ML-IAP (Homo sapiens, UniProt Q96CA5); assay: Fluorescence polarization competition assay, ML-IAP BIR; type: binding
T1 sequence (Q96CA5 63-179 limits assumed): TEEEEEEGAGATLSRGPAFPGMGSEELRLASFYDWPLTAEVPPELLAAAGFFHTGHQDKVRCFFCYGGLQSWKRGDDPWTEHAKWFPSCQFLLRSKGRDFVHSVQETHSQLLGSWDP

Ovarian Cancer Cells = conditions: 50 ng/mL TRAIL; cited from earlier work
[1] = system: MDA-MB-231 breast adenocarcinoma cells; assay: MDA-MB-231 cell viability, sensitization to TRAIL; type: cell-based; conditions: MDA-MB-231 cells, TRAIL alone at maximum dose of 100 ng/mL

**Q.** With `CN[C@@H](C)C(=O)N[C@H](C(=O)N1CCC[C@H]1C(=O)Nc1snnc1-c1ccccc1)C1CCCCC1` [GDC-0152] as the molecule, how does the Ki (ML-IAP) read?
**A.** 41 nM

**Q.** Which “increase in LBW242-induced cell death with addition of TRAIL” value (Ovarian Cancer Cells) does the source give for `CN[C@@H](C)C(=O)N[C@H](C(=O)N1CC[C@H]2CCN(CCc3ccccc3)C[C@H]21)C1CCCCC1` [LBW242] here?
**A.** 2- to 3 fold

B1: TRAIL: Tumor necrosis factor-related apoptosis-inducing ligand, member of the TNF family of cytokines (protein, UniProt P50591 1-281, looked up)
Tumor necrosis factor ligand …: MAMMEVQGGPSLGQTCVLIVIFTVLLQSLCVAVTYVYFTNELKQMQDKYSKSGIACFLKEDDSYWDPNDEESMNSPCWQVKWQLRQLVRKMILRTSEETISTVQEKQQNISPLVRERGPQRVAAHITGTRGRSNTLSSPNSKNEKALGRKINSWESSRSGHSFLSNLHLRNGELVIHEKGFYYIYSQTYFRFQEEIKENTKNDKQMVQYIYKYTSYPDPILLMKSARNSCWSKDAEYGLYSIYQGGIFELKENDRIFVSVTNEHLIDMDHEASFFGAFLVG
**Q.** For B1, which “cells undergone cell death” value [1] is on record?
**A.** 30%
